For six compounds, IC50 and inhibition results are on record in patent publication US8846704B2, “Thiopyrimidine-based compounds and uses thereof” (YM Biosciences Austraila Pty Ltd, priority 2007, dated 2014).

pIC50: −log10 of the molar value.

Holding throughout (format): biochemical
One test addresses T1, human JAK2 (Homo sapiens, UniProt O60674).
T1 construct: The kinase domain of human JAK2 was amplified; GST (N); made in house; host or cells: Sf9 insect cells (baculovirus)
Nature of the test: Alphascreen tyrosine kinase enzyme assay, JAK2 kinase domain. As to conditions: read-out: JAK2 IC50_nM. The procedure: (§1) For screening purposes, compounds (in 100% DMSO) were warmed at 37 degrees for at least 20 minutes before use. A […] stock was initially made in assay buffer, where the final concentration of DMSO was 0.3%. The stocks were then diluted in 384 well Optiplates (Packard) where the final concentration of the compound was […].
The kinase domain of human JAK2 was amplified from U937mRNA using the polymerase chain reaction with the following primers: […]
The JAK2 PCR products were cloned into the pDest20 destination vector (Gibco). The JAK2 plasmid was then transformed into competent DH10Bac cells (Gibco), and the recombinant baculovirus was prepared via Sf9 insect cell transfection.
(§2) Baculovirus preparations from each of the constructs were infected into either one or five liters of Sf9 cells (Invitrogen) grown in SF-900 medium (Invitrogen) to a cell density of approximately 1-2×10^6 cells/ml. Cells were infected with virus at a MOI of 0.8-3.0. Cells were harvested and lysed. Tyrosine kinase domains were purified by affinity chromatography on a glutathione-agarose column (Scientifix Pty. Ltd. catalog #: GSH-200).
(§3) Kinase assays were performed in 384 well Optiplates (Packard) using an Alphascreen Protein Tyrosine Kinase PY100 detection kit The compounds were pre-incubated with affinity purified PTK domain in the presence of phosphotyrosine assay buffer (10 mM HEPES, pH 7.5, 100 mM MgCl2, 25 mM NaCl, […] and 0.1% Tween 20) for 20 minutes. The compounds were then incubated with substrate in the presence of ATP. The substrate used was susbtrate-1 with the sequence biotin-EGPWLEEEEEAYGWMDF-NH2 [SEQ. ID. NO. 13] (final concentration […]). For HCK 80 μm ATP was used and incubated for 60 minutes. Alphascreen phosphotyrosine acceptor beads followed by streptavidin donor beads at a concentration of 1/100 in stop buffer were added to each well under subdued light and incubated for 2-3 hours., The Alphascreen plates were read on a Packard Fusion Alpha instrument.
On the technique in general: Bead proximity is the source of the signal in Alpha formats.

The target in the next test is T2, KDR(h) (Homo sapiens, UniProt P35968).
T2 construct: purchased Upstate Biotechnology (Dundee, UK), KinaseProfiler service
T2 sequence (P35968 20-1356): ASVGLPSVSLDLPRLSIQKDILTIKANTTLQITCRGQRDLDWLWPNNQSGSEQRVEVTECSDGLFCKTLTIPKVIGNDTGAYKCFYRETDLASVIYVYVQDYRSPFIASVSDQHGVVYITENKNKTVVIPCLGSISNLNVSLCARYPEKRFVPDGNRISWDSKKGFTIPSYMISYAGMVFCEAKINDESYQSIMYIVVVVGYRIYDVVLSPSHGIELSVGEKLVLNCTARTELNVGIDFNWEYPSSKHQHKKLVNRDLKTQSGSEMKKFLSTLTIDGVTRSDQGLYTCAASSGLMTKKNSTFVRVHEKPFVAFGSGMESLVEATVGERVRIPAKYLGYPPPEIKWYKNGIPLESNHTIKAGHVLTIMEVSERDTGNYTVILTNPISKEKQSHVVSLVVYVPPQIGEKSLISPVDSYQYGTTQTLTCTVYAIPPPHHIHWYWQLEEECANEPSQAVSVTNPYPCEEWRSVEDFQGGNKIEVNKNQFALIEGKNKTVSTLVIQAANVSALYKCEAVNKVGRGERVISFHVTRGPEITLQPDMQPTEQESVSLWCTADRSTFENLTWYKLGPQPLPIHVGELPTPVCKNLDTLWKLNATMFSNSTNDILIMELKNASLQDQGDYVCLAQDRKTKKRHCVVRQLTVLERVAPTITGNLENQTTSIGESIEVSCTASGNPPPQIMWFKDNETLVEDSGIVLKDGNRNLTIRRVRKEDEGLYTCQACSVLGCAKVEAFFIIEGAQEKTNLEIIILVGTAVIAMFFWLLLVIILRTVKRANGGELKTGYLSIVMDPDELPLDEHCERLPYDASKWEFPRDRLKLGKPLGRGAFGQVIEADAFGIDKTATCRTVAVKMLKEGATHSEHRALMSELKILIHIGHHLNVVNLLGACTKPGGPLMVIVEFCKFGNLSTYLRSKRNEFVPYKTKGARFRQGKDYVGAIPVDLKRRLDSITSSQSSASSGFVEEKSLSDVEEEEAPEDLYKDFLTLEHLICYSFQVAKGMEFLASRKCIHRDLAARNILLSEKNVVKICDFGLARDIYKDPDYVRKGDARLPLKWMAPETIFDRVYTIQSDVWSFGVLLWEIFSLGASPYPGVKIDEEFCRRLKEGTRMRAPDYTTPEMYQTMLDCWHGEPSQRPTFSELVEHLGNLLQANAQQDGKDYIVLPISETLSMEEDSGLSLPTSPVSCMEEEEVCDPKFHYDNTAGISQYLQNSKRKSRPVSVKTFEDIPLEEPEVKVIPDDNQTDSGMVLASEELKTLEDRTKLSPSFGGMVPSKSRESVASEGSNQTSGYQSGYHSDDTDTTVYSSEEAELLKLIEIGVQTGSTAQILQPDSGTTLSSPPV
Nature of the test: Upstate KinaseProfiler enzyme assay, KDR. As to conditions: 500 nM compound; read-out: Percent inhibition at 500 nM KDR(h). The procedure:
(§4) Further enzyme assays were conducted at Upstate Biotechnology (Dundee, UK) in the KinaseProfiler™ Assay system.
(§5) The general protocol is as follows. All kinases are pre-diluted to a 10× working concentration prior to addition into the assay. The composition of the dilution buffer for the kinases is 20 mM MOPS pH 7.0, 1 mM EDTA, 0.1% β-mercaptoethanol, 0.01% Brij-35, 5% glycerol, 1 mg/ml BSA. All substrates are dissolved and diluted to working stocks in de-ionised water.

Another test deals with T3, Bmx(h) (Homo sapiens, UniProt P51813).
T3 construct: purchased Upstate Biotechnology (Dundee, UK), KinaseProfiler service
T3 sequence (P51813 1-675): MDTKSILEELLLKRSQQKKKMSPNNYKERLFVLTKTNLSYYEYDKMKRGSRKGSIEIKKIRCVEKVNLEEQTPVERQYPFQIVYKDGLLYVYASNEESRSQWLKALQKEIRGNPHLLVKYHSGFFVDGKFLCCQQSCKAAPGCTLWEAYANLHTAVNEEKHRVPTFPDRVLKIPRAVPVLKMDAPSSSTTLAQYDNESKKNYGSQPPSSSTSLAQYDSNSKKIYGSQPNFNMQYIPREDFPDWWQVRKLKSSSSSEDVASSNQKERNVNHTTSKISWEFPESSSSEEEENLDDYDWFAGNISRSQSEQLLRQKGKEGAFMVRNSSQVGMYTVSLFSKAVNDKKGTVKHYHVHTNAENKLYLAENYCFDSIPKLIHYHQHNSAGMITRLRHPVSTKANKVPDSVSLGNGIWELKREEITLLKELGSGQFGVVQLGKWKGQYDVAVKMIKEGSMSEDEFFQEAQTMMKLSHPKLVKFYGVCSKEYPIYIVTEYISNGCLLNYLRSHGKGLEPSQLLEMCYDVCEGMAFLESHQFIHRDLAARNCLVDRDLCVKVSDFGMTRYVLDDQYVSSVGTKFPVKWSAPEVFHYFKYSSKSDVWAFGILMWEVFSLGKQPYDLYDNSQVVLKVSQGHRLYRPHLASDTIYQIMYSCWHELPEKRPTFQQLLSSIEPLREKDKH
Nature of the test: Upstate KinaseProfiler enzyme assay, Bmx. As to conditions: 500 nM compound; read-out: Percent inhibition at 500 nM Bmx(h). As for the experimental part:
as §4, §5

The next test has as its target T4, Flt 1(h) (Homo sapiens, UniProt P17948).
T4 construct: purchased Upstate Biotechnology (Dundee, UK), KinaseProfiler service
Nature of the test: Upstate KinaseProfiler enzyme assay, Flt 1. As to conditions: 500 nM compound; read-out: Percent inhibition at 500 nM Flt 1(h). The procedure: as §4, §5

Another test concerns the target T5, Blk(m) (Mus musculus, UniProt P16277).
T5 construct: purchased Upstate Biotechnology (Dundee, UK), KinaseProfiler service
As to the kind of experiment: Upstate KinaseProfiler enzyme assay, Blk. As to conditions: 500 nM compound; read-out: Percent inhibition at 500 nM Blk(m). As for the experimental part:
as §4, §5

The next test has as its target T6, Flt 4(h) (Homo sapiens, UniProt P35916).
T6 construct: purchased Upstate Biotechnology (Dundee, UK), KinaseProfiler service
As to the kind of experiment: Upstate KinaseProfiler enzyme assay, Flt 4. As to conditions: 500 nM compound; read-out: Percent inhibition at 500 nM Flt 4(h). The procedure:
as §4, §5

A further test deals with T7, human JAK3 (Homo sapiens, UniProt P52333).
T7 construct: The kinase domain of human JAK3 was amplified; GST (N); made in house; host or cells: Sf9 insect cells (baculovirus)
T7 sequence (P52333 822-1111 limits assumed): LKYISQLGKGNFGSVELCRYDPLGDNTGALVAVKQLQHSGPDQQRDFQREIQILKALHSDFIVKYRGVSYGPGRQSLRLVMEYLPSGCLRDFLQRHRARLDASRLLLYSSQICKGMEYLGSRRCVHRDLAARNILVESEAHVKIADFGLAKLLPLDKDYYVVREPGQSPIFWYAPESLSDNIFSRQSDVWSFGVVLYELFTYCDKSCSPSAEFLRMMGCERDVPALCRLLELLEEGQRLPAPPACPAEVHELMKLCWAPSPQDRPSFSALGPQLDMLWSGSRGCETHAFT
As to the kind of experiment: Alphascreen tyrosine kinase enzyme assay, JAK3 kinase domain. As to conditions: read-out: JAK3 IC50_nM. As for the experimental part: as §1
The kinase domain of human JAK3 was amplified from U937mRNA using the polymerase chain reaction with the following primers: […]
The JAK3 PCR products were cloned into the pDest20 destination expression vector (Gibco). The JAK3 plasmid was then transformed into competent DH10Bac cells (Gibco), and the recombinant baculovirus was prepared via Sf9 insect cell transfection.
as §2, §3

Test [1] addresses T8, Human hemopoietic cell protein-tyrosine kinase (HCK) (Homo sapiens, UniProt P08631).
T8 construct: GST (N); made in house; host or cells: Sf9 insect cells (baculovirus)
Nature of the test: Alphascreen tyrosine kinase enzyme assay, HCK kinase domain. As to conditions: read-out: FMS, FLT3, or HCK IC50_nM (HCK). The procedure:
as §1
The kinase domain of Human hemopoietic cell protein-tyrosine kinase (HCK) between L212 and P505 (accession number M16592) was amplified from U937 mRNA using the polymerase chain reaction.
The PCR product was cloned into the pDest20 destination vector (Gibco). The plasmid was then transformed into competent […] cells (Gibco) to produce a HCK bacmid. The recombinant baculovirus was prepared via Sf9 insect cell transfection with bacmid DNA.
Baculovirus preparations from each of the constructs were infected into either one or five liters of Sf9 cells (Invitrogen) grown in SF-900 medium (Invitrogen) to a cell density of approximately 1-2×10^6 cells/ml. Cells were infected with virus at a MOI of 0.8-3.0. Cells were harvested and lysed. Tyrosine kinase domains were purified by affinity chromatography on a glutathione-agarose column (Scientifix Pty. Ltd. catalog #: GSH-200). […]

The next test has as its target T9, human CSF1-R (FMS) (Homo sapiens, UniProt P07333).
T9 construct: from codon I553 to Q961; GST (N); made in house; host or cells: Sf9 insect cells (baculovirus)
T9 sequence (P07333 553-961): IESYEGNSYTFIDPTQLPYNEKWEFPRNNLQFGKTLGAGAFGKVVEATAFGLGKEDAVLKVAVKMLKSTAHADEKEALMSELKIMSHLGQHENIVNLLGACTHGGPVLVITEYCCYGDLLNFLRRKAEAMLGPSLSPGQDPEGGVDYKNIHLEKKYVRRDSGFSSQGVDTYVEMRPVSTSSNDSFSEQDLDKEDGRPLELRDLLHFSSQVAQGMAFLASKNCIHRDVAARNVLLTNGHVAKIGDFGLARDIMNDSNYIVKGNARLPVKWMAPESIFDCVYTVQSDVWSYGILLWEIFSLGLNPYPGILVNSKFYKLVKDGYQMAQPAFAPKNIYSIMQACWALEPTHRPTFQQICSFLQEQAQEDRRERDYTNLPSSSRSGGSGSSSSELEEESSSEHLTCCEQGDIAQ
As to the kind of experiment: Alphascreen tyrosine kinase enzyme assay, CSF-1R (FMS) kinase domain. As to conditions: read-out: FMS, FLT3, or HCK IC50_nM (FMS). The procedure: as §1
The kinase domain of human CSF1-R from codon I553 to Q961 was cloned into the pDest20 expression vector (Invitrogen). The CSF1-R plasmid was then transformed into competent DH10Bac cells (Gibco), and the recombinant baculovirus produced prepared for transfection into Sf9 insect cells.
as §2, §3

The target in the next test is T10, BTK(h) (Homo sapiens, UniProt Q06187).
T10 construct: purchased Upstate Biotechnology (Dundee, UK), KinaseProfiler service
T10 sequence (Q06187 whole entry): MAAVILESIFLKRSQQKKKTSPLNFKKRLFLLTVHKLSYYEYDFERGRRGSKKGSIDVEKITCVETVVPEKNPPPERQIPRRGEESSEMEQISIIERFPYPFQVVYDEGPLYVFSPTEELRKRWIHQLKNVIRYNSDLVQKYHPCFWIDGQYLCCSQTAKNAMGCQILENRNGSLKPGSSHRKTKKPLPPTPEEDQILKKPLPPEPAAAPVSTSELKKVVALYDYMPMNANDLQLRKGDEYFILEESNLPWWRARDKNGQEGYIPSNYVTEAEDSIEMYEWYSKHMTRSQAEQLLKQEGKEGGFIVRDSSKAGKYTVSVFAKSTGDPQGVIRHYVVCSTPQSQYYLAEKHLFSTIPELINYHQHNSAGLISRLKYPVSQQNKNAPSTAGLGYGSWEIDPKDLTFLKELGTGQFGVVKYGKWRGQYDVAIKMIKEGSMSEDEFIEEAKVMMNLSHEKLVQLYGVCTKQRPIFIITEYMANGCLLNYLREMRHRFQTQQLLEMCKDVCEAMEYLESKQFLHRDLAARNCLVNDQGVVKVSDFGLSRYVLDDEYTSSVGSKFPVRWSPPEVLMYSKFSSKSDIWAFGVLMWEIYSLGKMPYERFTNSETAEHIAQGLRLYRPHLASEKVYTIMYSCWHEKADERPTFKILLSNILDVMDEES
As to the kind of experiment: Upstate KinaseProfiler enzyme assay, BTK. As to conditions: 500 nM compound; read-out: Percent inhibition at 500 nM BTK(h). As for the experimental part:
as §4, §5

T5 sequence (P16277 whole entry): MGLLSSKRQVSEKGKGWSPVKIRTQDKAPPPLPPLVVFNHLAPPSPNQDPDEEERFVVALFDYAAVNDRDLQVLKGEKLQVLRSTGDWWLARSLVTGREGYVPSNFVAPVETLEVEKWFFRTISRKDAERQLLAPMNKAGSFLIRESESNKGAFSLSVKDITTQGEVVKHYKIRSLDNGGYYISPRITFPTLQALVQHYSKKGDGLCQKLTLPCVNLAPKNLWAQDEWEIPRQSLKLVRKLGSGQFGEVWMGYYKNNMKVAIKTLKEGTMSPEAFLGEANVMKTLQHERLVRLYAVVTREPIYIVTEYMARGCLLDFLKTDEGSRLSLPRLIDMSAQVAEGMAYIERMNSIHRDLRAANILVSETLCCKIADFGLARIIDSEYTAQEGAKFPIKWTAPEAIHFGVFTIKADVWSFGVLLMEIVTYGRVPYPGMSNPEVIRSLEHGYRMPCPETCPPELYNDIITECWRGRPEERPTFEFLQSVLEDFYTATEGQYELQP
T4 sequence (P17948 27-1338): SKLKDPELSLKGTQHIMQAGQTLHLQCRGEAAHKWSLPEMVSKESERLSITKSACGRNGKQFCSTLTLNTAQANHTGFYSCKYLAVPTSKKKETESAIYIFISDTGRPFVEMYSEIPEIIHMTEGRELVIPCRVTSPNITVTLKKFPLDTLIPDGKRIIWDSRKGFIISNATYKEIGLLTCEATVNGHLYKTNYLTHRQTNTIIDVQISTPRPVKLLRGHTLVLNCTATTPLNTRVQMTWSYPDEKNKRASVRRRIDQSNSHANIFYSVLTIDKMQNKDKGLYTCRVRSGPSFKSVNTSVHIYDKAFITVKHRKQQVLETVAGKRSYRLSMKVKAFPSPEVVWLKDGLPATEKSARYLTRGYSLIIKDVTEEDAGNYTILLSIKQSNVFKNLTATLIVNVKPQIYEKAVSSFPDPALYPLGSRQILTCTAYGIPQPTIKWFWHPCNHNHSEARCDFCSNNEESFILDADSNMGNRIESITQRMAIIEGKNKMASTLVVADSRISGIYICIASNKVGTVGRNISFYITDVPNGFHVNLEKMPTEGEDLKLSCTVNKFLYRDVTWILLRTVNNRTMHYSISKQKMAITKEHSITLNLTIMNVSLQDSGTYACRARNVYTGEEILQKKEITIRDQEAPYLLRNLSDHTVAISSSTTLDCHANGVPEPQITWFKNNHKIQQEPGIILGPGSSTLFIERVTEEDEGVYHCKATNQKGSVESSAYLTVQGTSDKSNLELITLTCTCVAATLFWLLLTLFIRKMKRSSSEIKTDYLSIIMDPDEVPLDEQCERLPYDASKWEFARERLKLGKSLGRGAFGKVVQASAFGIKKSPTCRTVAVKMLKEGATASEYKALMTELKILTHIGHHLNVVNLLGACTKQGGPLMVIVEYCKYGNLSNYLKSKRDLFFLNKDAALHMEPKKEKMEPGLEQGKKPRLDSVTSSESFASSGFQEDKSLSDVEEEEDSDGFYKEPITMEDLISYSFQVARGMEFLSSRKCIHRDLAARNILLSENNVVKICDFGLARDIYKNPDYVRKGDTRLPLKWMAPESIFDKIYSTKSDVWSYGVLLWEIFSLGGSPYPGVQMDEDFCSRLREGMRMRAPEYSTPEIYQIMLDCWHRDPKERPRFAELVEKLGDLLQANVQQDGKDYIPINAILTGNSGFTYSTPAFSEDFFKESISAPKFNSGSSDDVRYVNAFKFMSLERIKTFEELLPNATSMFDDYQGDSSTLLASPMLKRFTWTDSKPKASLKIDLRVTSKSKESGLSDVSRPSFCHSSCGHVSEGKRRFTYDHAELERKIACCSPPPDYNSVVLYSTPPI
T1 sequence (O60674 849-1124 limits assumed): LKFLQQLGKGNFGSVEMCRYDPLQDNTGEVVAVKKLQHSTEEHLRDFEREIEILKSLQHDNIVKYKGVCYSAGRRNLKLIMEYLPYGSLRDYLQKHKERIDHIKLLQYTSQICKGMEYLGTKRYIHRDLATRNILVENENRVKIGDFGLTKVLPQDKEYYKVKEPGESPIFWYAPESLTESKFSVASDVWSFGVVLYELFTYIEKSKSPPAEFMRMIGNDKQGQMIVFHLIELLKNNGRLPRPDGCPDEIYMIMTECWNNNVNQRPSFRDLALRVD
T8 sequence (P08631 233-526): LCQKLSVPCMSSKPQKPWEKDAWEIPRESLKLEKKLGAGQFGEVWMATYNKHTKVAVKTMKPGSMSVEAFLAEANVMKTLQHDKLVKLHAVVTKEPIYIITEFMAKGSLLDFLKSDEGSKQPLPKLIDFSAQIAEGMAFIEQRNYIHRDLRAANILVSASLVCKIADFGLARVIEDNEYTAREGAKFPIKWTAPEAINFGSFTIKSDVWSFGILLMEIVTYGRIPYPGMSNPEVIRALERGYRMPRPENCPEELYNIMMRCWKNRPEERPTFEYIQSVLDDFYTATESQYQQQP

By inhibition is commonly meant the change of the read-out against control, counted positive when it falls. For `C=CC(=O)N1CCCc2cc(Sc3nc(Nc4ccc(N5CCOCC5)cc4)ncc3C)ccc21` [Compound 168, 1-(6-(5-methyl-2-(4-morpholinophenylao)pyrimidin-4-ylthio)-3,4-dihydroquinolin-1(2H)-yl)prop-2-en-1-one], the pIC50 at human JAK2 was below 6.00; on human JAK3 it was above 7.00. Further, the inhibition at 0.5 µM on KDR(h) is 96%; on Bmx(h), 92%; at Flt 1(h), 66%; on Blk(m), 98%; at Flt 4(h), 99%.

For `Oc1cccc(Sc2ccnc(Nc3ccc(N4CCOCC4)cc3)n2)c1` [Compound 38, 3-(2-(4-morpholinophenylao)pyrimidin-4-ylthio)phenol], the pIC50 (in [1]; on human CSF1-R (FMS)) was above 6.30 in each case.

Take `C=CC(=O)N1CCc2cc(Sc3nc(Nc4ccc(N5CCOCC5)cc4)ncc3C)ccc21` [Compound 170, 1-(5-(5-methyl-2-(4-morpholinophenylao)pyrimidin-4-ylthio)indolin-1-yl)prop-2-en-1-one]: the values for the pIC50 at human JAK2 and on human JAK3 were below 6.00 and above 7.00, respectively. The inhibition at 0.5 µM on KDR(h) was found to be 97%; on Bmx(h) it was 97%; on Flt 1(h) it was 74%; at Blk(m), 96%; at Flt 4(h), 99%.

Consider `O=C(CCNc1ccccc1)Nc1ccc(Sc2ccnc(Nc3ccccc3)n2)cc1` [Compound 351, 3-(phenylao)-N-(4-(2-(phenylao)pyrimidin-4-ylthio)phenyl)propanamide], for which the inhibition at 0.5 µM on KDR(h), on BTK(h), at Bmx(h) and at Blk(m) was 100% throughout.

As to `C=C(C)C(=O)Nc1cccc(Sc2ccnc(Nc3ccc(N4CCOCC4)cc3)n2)c1` [Compound 115, N-(3-(2-(4-morpholinophenylao)pyrimidin-4-ylthio)phenyl)methacrylamide], the inhibition at 0.5 µM on KDR(h), at BTK(h), at Bmx(h) and at Blk(m) was 100% each time.

Take `C=CC(=O)Nc1cccc(Sc2ccnc(Nc3cc(OC)c(OC)c(OC)c3)n2)c1` [Compound 51, N-(3-(2-(3,4,5-trimethoxyphenylamino)pyrimidin-4-ylthio)phenyl)acrylamide]: the inhibition at 0.5 µM came to 100% on KDR(h), 100% on BTK(h), 100% at Bmx(h) and 29% at Blk(m).
